≈ marks a conversion by molar mass, not a printed value.
Tests used:
[1] = target: T1, P2Y purinoceptor 14 (Homo sapiens) (UniProt Q15391)
T1 sequence (whole entry): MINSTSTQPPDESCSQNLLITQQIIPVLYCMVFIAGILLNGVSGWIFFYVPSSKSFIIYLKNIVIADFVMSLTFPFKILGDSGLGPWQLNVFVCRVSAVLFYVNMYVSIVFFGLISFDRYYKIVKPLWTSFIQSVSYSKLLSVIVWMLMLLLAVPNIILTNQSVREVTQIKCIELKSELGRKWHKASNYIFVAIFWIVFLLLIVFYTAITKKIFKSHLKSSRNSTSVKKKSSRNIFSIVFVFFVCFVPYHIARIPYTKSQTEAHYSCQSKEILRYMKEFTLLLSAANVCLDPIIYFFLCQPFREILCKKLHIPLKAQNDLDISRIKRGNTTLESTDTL
Description: Antagonist activity at P2Y14R (unknown origin) stably expressed in HEK293 cells assessed as inhibition of forskolin-induced cAMP production at 100 nM by cAMP-Glo assay relative to control

P2Y purinoceptor 14 = target: T2, P2Y purinoceptor 14 (Homo sapiens, UniProt Q15391); test: Antagonist activity at P2Y14R (unknown origin) stably expressed in HEK293 cells assessed as inhibition of forskolin-induced cAMP production by cAMP-Glo assay; format: functional, cell-based
T2 sequence (Q15391 whole entry): T1 sequence (whole entry)

[2] = Aqueous solubility of compound in SGF at pH 1.2 by spectrometry; format: ADME
[3] = Aqueous solubility of compound in SIF at pH 6.8 by spectrometry; format: ADME; conditions: simulated gi fluid
[4] = Aqueous solubility of compound in double distilled water at pH 7 by spectrometry; format: physicochemical; conditions: buffer
[5] = Aqueous solubility of compound in PBS at pH 7.4 by spectrometry; format: physicochemical; conditions: buffer
P2Y purinoceptor 4 = P2Y purinoceptor 4 (Homo sapiens, UniProt P51582); test: Inhibition of P2Y4R (unknown origin) expressed in HEK293 cells assessed as decrease in IP3 production; format: functional, cell-based
P2Y purinoceptor 4, sequence (P51582 whole entry): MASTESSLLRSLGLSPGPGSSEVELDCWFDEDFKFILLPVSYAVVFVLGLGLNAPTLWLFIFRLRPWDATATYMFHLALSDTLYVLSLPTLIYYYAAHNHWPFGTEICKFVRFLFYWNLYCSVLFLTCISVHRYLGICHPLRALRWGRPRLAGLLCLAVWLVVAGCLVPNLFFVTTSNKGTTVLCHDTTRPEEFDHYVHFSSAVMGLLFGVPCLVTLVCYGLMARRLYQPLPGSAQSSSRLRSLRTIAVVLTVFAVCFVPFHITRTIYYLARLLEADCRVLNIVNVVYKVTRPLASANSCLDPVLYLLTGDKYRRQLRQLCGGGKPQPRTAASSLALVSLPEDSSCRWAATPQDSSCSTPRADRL

P2Y purinoceptor 12 = P2Y purinoceptor 12 (Homo sapiens, UniProt Q9H244); test: Inhibition of P2Y12R (unknown origin) expressed in HEK293 cells assessed as restoration of cAMP reduction; format: functional, cell-based
P2Y purinoceptor 12, sequence (Q9H244 whole entry): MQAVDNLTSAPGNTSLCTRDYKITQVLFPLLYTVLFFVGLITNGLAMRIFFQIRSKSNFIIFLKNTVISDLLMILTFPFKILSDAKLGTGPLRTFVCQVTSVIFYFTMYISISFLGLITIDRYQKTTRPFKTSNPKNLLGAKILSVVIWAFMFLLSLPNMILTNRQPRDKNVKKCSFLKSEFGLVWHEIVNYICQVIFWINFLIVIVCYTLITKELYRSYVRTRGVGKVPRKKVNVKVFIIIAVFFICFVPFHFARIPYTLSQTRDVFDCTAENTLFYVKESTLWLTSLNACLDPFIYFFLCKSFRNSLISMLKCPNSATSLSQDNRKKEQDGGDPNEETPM

P2Y purinoceptor 6 = P2Y purinoceptor 6 (Homo sapiens, UniProt Q15077); test: Inhibition of P2Y6R (unknown origin) expressed in HEK293 cells assessed as decrease in IP3 reduction
P2Y purinoceptor 6, sequence (Q15077 whole entry): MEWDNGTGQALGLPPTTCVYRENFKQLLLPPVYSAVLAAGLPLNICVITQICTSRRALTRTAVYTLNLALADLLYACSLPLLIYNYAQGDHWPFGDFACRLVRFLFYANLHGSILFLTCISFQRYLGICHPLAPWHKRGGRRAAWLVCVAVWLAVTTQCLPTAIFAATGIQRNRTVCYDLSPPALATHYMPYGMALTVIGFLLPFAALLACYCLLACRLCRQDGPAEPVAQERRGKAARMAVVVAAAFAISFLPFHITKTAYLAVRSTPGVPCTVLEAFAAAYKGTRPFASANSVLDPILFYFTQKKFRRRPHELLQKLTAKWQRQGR

[6] = Metabolic stability in human liver microsomes measured for 90 mins; format: ADME, Microsome; conditions: 1.5 h
[7] = HEK293, filed as antagonist, dose 100.0 nM

Row | Compound | inhibition [1, 7] [%] | IC50 (P2Y purinoceptor 14) [nM] | other results
1 | Cc1ccc(Oc2sc(C(=O)O)cc2NC(=O)c2cnn(C)c2)cn1 | 42.8 | – | –
2 | Cc1ccc(C(=O)Nc2cc(C(=O)O)sc2Oc2ccsn2)cc1 | 60.3 | – | –
3 | Cc1ccc(C(=O)Nc2cc(C(=O)O)sc2Oc2ccc(C#N)cc2)cc1 | – | – | inhibition ([1]; HEK293, dose 100.0 nM): 16.2%
4 | Cc1ccc(C(=O)Nc2cc(C(=O)O)nn2Cc2ccc(F)cc2)cc1 | – | – | solubility ([2]; simulated gi fluid): 0.085 µg/mL (≈ 0.241 µM); solubility [3]: 0.203 µg/mL (≈ 0.574 µM); solubility [4]: 0.088 µg/mL (≈ 0.249 µM); solubility [5]: 0.318 µg/mL (≈ 0.9 µM)
5 | Cc1ccc(Oc2sc(C(=O)O)cc2NC(=O)c2ccc(Cl)cc2)cn1 | – | – | inhibition ([1]; HEK293, dose 100.0 nM): 21%
6 | Cc1ccc(C(=O)Nc2cc(C(=O)O)sc2Oc2cccc(F)c2)cc1 | 69.6 | 87.7 | –
7 | COc1cccc(Oc2sc(C(=O)O)cc2NC(=O)c2ccc(C)cc2)c1 | 63.2 | – | –
8 | Cc1ccc(C(=O)Nc2cc(C(=O)O)sc2Oc2ccc(Cl)cc2)cc1 | – | – | inhibition ([1]; HEK293, dose 100.0 nM): 39.9%
9 | Cc1ccc(Oc2sc(C(=O)O)cc2NC(=O)c2ccccc2)cn1 | 81.9 | 13 | –
10 | COc1ccccc1Oc1sc(C(=O)O)cc1NC(=O)c1ccc(C)cc1 | 48.1 | – | –
11 | O=C(C1CC1)N1CCc2cc(Br)c(S(=O)(=O)Nc3ccc(C(F)(F)F)c(Cl)c3)cc21 | – | – | IC50 (P2Y purinoceptor 4): 13000 nM
12 | CCc1ccc(C(=O)Nc2cc(C(=O)O)sc2Oc2ccc(C)nc2)cc1 | 59.8 | – | –
13 | Cc1ccc(C(=O)Nc2cc(C(=O)O)sc2Oc2ccccn2)cc1 | 74.9 | 1690 | –
14 | Cc1ccc(C(=O)Nc2cc(C(=O)O)sc2Oc2ccc(C)cn2)cc1 | 90.6 | 0.55 | solubility ([2]; SGF, read-out: solubility): 0.03 µg/mL (≈ 0.0814 µM); solubility [3]: 0.109 µg/mL (≈ 0.296 µM); solubility [4]: 0.039 µg/mL (≈ 0.106 µM); solubility [5]: 1.7 µg/mL (≈ 4.61 µM)
15 | Cc1ccc(C(=O)Nc2cc(C(=O)O)sc2Oc2ccccc2C(F)(F)F)cc1 | 57.1 | – | –
16 | Cc1ccc(C(=O)Nc2cc(C(=O)O)sc2Oc2cccnc2)cc1 | 62 | – | –
17 | CC(=O)c1ccc(Oc2sc(C(=O)O)cc2NC(=O)c2ccc(C)cc2)cc1 | – | – | inhibition ([1]; HEK293, dose 100.0 nM): 34.5%
18 | C#Cc1ccc(C(=O)Nc2cc(C(=O)O)sc2Oc2ccc(C)nc2)cc1 | 116 | 7.51 | –
19 | Cc1ccc(Oc2sc(C(=O)O)cc2NC(=O)c2ccc(F)cc2)cn1 | 46.6 | – | –
20 | O=C(O)c1cc(-c2ccc(C3CCNCC3)cc2)c2ccc(-c3ccc(C(F)(F)F)cc3)cc2c1 [PPTN] | – | – | solubility ([2]; SGF, read-out: solubility): < 0.005 µg/mL; solubility [3]: < 0.005 µg/mL; solubility [4]: < 0.005 µg/mL; solubility [5]: < 0.005 µg/mL
21 | Cc1ccc(Oc2sc(C(=O)O)cc2NC(=O)c2cnc(C)nc2)cn1 | 83.9 | 3130 | –
22 | Cc1ccc(Oc2sc(C(=O)O)cc2NC(=O)c2ccc(C(C)(C)C)cc2)cn1 | – | – | inhibition ([1]; HEK293, dose 100.0 nM): 12.2%

Row | Compound | inhibition [1, 7] [%] | IC50 (P2Y purinoceptor 14) [nM] | other results
23 | Cc1ccc(Oc2sc(C(=O)O)cc2NC(=O)c2cnc(C)cn2)cn1 | 71 | 1060 | –
24 | Cc1ccc(C(=O)Nc2cc(C(=O)O)sc2Oc2ccc(C)nc2)nc1 | 60.1 | – | –
25 | CCCc1ccc(C(=O)Nc2cc(C(=O)O)sc2Oc2ccc(C)nc2)cc1 | 44.3 | – | –
26 | Cc1ccc(C(=O)Nc2cc(C(=O)O)sc2Oc2cccc(Cl)c2)cc1 | – | – | inhibition ([1]; HEK293, dose 100.0 nM): 36.2%
27 | Cc1ccc(Oc2sc(C(=O)O)cc2NC(=O)c2ccc(C(F)(F)F)cc2)cn1 | – | – | inhibition ([1]; HEK293, dose 100.0 nM): 39.7%
28 | CCCSc1nc(N[C@@H]2C[C@H]2c2ccc(F)c(F)c2)c2nnn([C@@H]3C[C@H](OCCO)[C@@H](O)[C@H]3O)c2n1 [TICAGRELOR] | – | – | IC50 (P2Y purinoceptor 12): 1280 nM
29 | Cc1ccc(Oc2sc(C(=O)O)cc2NC(=O)c2ccc(C)nc2)cn1 | – | – | inhibition ([1]; HEK293, dose 100.0 nM): 30.3%
30 | Cc1ccc(Oc2sc(C(=O)O)cc2NC(=O)c2ccc(C(C)C)cc2)cn1 | 44.3 | – | –
31 | Cc1ccc(C(=O)Nc2cc(C(=O)O)sc2Oc2ccccc2C)cc1 | 45.8 | – | –
32 | Cc1ccc(C(=O)Nc2cc(C(=O)O)sc2Oc2ccccc2F)cc1 | 66 | 104 | –
33 | Cc1ccc(Nc2sc(C(=O)O)cc2NC(=O)c2ccc(C)cc2)cc1 | 41.7 | – | –
34 | Cc1ccc(Sc2sc(C(=O)O)cc2NC(=O)c2ccc(C)cc2)cc1 | 88.4 | 6.53 | –
35 | Cc1ccc(C(=O)Nc2cc(C(=O)O)cc(-c3ccoc3)c2)cc1 | – | – | solubility ([2]; simulated gi fluid): 0.069 µg/mL (≈ 0.215 µM); solubility [3]: 0.471 µg/mL (≈ 1.47 µM); solubility [4]: 0.078 µg/mL (≈ 0.243 µM); solubility [5]: 0.878 µg/mL (≈ 2.73 µM)
36 | S=C=Nc1cccc(NC(=S)NCCCCNC(=S)Nc2cccc(N=C=S)c2)c1 | – | – | IC50 (P2Y purinoceptor 6): 23.4 nM
37 | Cc1ccc(C(=O)Nc2cc(C(=O)O)sc2Oc2ccc(F)nc2)cc1 | 83.4 | 17.6 | solubility ([2]; SGF, read-out: solubility): 0.036 µg/mL (≈ 0.0967 µM); solubility [3]: 1.202 µg/mL (≈ 3.23 µM); solubility [4]: 0.041 µg/mL (≈ 0.11 µM); solubility [5]: 3.253 µg/mL (≈ 8.74 µM)
38 | Cc1ccc(C(=O)Nc2cc(C(=O)O)sc2Oc2cccc(C(F)(F)F)c2)cc1 | 52.8 | – | –
39 | Cc1ccc(Oc2sc(C(=O)O)cc2NC(=O)c2ccc(N(C)C)cc2)cn1 | 40.8 | – | –
40 | O=C(CCCNC(=S)Nc1ccc2c(c1)C(=O)OC21c2ccc(O)cc2Oc2cc(O)ccc21)NCCCC(=O)N1CCC(c2ccc(-c3cc(C(=O)O)cc4cc(-c5ccc(C(F)(F)F)cc5)ccc34)cc2)CC1 | – | 1.52 | –
41 | COc1ccc(C(=O)Nc2cc(C(=O)O)sc2Oc2ccc(C)nc2)cc1 | 112 | 1.29 | solubility ([2]; SGF, read-out: solubility): 2.26 µg/mL (≈ 5.88 µM); solubility [3]: 0.423 µg/mL (≈ 1.1 µM); solubility [4]: 0.063 µg/mL (≈ 0.164 µM); solubility [5]: 2.33 µg/mL (≈ 6.06 µM); Stability [6]: Stable
42 | Cc1ccc(C(=O)Nc2cc(C(=O)O)sc2Oc2ccc(OC(F)(F)F)cc2)cc1 | – | – | inhibition ([1]; HEK293, dose 100.0 nM): 32.7%
43 | Cc1ccc(C(=O)Nc2cc(C(=O)O)sc2Oc2ccccc2Cl)cc1 | 40.4 | – | –
44 | Cc1ccc(Oc2sc(C(=O)O)cc2NC(=O)c2ccc(C#N)cc2)cn1 | – | – | inhibition ([1]; HEK293, dose 100.0 nM): 33%

Further lines, with some results ahead:

Row | inhibition [1, 7] [%] | IC50 (P2Y purinoceptor 14) [nM] | Compound | other results
45 | 62.8 | – | Cc1ccc(C(=O)Nc2cc(C(=O)O)sc2Oc2ccc(S(C)(=O)=O)cc2)cc1 | –
46 | 97.4 | 4.01 | Cc1ccc(Oc2sc(C(=O)O)cc2NC(=O)c2ccc(C)cc2)cc1 | –
47 | 43.5 | – | Cc1ccc(C(=O)Nc2cc(C(=O)O)sc2Oc2ccncc2)cc1 | –
48 | 74.8 | 60.6 | Cc1ccc(C(=O)Nc2cc(C(=O)O)sc2Oc2ccc(F)cc2)cc1 | –
49 | 42.3 | – | Cc1ccc(C(=O)Nc2cc(C(=O)O)sc2Oc2ccccc2)cc1 | –
50 | 66.3 | 124 | CCCc1ccc(Oc2sc(C(=O)O)cc2NC(=O)c2ccc(C)cc2)cc1 | –
51 | 69.8 | 24500 | COc1ccc(Oc2sc(C(=O)O)cc2NC(=O)c2ccc(C)cc2)cc1 | –
52 | 99.4 | 6.53 | Cc1ccc(C(=O)Nc2cc(C(=O)O)sc2Oc2ccc(C)nc2)cc1 | solubility ([2]; SGF, read-out: solubility): 0.844 µg/mL (≈ 2.29 µM); solubility [3]: 0.189 µg/mL (≈ 0.513 µM); solubility [4]: 0.067 µg/mL (≈ 0.182 µM); solubility [5]: 2.37 µg/mL (≈ 6.43 µM)
53 | 67.4 | 81.3 | CCc1ccc(Oc2sc(C(=O)O)cc2NC(=O)c2ccc(C)cc2)cc1 | –
54 | 54.4 | – | Cc1ccc(C(=O)Nc2cc(C(=O)O)sc2Oc2ccc(C(C)(C)C)cc2)cc1 | –
55 | 55.8 | – | Cc1ccc(C(=O)Nc2cc(C(=O)O)sc2Oc2cccc(C)c2)cc1 | –
56 | 54.3 | – | Cc1ccc(C(=O)Nc2cc(C(=O)O)sc2Oc2ccc(C(C)C)cc2)cc1 | –
57 | 62.6 | – | Cc1ccc(C(=O)Nc2cc(C(=O)O)sc2Oc2ccc(C(F)(F)F)cc2)cc1 | –
58 | 44.1 | – | Cc1ccc(C(=O)Nc2cc(C(=O)O)sc2Oc2ccc(C(=O)O)cc2)cc1 | –
59 | 66 | 18600 | CC(=O)Nc1ccc(Oc2sc(C(=O)O)cc2NC(=O)c2ccc(C)cc2)cc1 | –

Source: ChEMBL document CHEMBL5523735 (J Med Chem, 2024)
